Data taken from patent US20260335388A1, “COMBINATION THERAPIES WITH ONCOLYTIC ADENOVIRUS AND TOPOISOMERASE I INHIBITORS OR PRODRUGS THEREOF” (priority 2022, published 2026).
Like-named read-outs stand apart in the source and are kept apart here.

Assays:
[1] = system: HSJD-RBT-7 retinoblastoma cells; test: cells; assay type: cell-based; conditions: Homo sapiens
[2] = system: Y79 retinoblastoma cells; test: cells; assay type: cell-based
[3] = system: Y79 cells; test: Viability of Y79 cells by treatment sequence; assay type: cell-based
Description: To address the sequence of the treatments on cell viability and apoptosis markers, topotecan (2 μM) and VCN-01 at 50 MOI (concentration sufficient to achieve viral protein transduction at early time points) was incubated with the sequence “topotecan first” (three days before VCN-01) or “VCN-01 first” (three days before topotecan). The experiments were controlled by adding culture medium instead of the second treatment.

[4] = system: E1a; assay type: cell-based
[5] = system: HSJD-NB-005 neuroblastoma; test: Antitumor activity in neuroblastoma PDX HSJD-NB-005; assay type: in vivo, mouse; conditions: single treatment (FIG. 24D,F)
Description: PDX of neuroblastoma (pediatric solid tumor) were implanted subcutaneously into athymic nude mice. Tumor model was HSJD-NB-005. Upon engraftment (tumor volumes ranging 100-500 mm^3), treatments were started. The activity of topotecan vs. irinotecan in combination with VCN-01 was evaluated. The following groups of mice were included in the study, with an n of 6 tumors per group: • Group 1: no treatment • Group 2: topotecan i.p. at 0.6 mg/kg, Day 1-5 • Group 3: irinotecan i.p. at 10 mg/kg, Day 1-5 • Group 4: VCN-01 i.t at 3E9 vp/tumor, Day 1 • Group 5: VCN-01 i.t at 3E9 vp/tumor, Day 1 (morning)+topotecan i.p. at 0.6 mg/kg, Day 1-5 • Group 6: VCN-01 i.t at 3E9 vp/tumor, Day 1 (morning)+irinotecan i.p. at 10 mg/kg, Day 1-5
Antitumor activity in extracranial pediatric solid tumors. 5-10 mm^3 fresh fragments of Ewing sarcoma or neuroblastoma PDX were implanted in both flanks of mice. Upon s.c. engraftment (tumor volume 150-200 mm^3), mice received topotecan (0.6 mg/kg, i.p., days 1-5), VCN-01 (3×10^9 vp in 20 µL vehicle, intratumoral, day 1), or the combination. In two additional groups, an alternative topoisomerase 1 inhibitor, irinotecan (10 mg/kg, i.p., on days 1-5) we used in place of topotecan. Upon completion of treatments, tumor volumes were followed until endpoint (1500 mm^3), or until day 80.

[6] = system: E2F-1; test: E2F-1 immunostaining in intraocular Y79 tumors; assay type: in vivo, mouse; conditions: mice with intraocular Y79 tumors, vs untreated (FIG. 17E)
[7] = system: recombinant hyaluronidase PH20 (SPAM1 gene); test: mRNA expression of recombinant hyaluronidase PH20 (SPAM1) in s.c. retinoblastomas; assay type: in vivo, mouse; conditions: 5 days, compared to […] (FIG. 18H)
Description: To quantify the recombinant PH20 hyaluronidase gene (SPAM1) in cultures and mouse tissues, the SYBR primer: Forward 5′-TACACACTCCTTGCTCCTGG-3′ (SEQ ID NO: 19), Reverse: 5′-CTTAGTCTCACAGAGGCCAC-3′ (SEQ ID NO: 20) (Bazan-Peregrino et al., “VCN-01 disrupts pancreatic cancer stroma and exerts antitumor effects,” Journal for ImmunoTherapy of Cancer 2021; 9(11):e003254) was used.
To establish s.c. tumors, 10^6 retinoblastoma cells suspended in 25 µL matrigel (Corning, Glendale, AZ, USA) were injected in athymic nude mice. Upon xenograft engraftment (tumor volumes ranging 100-200 mm^3), treatments were started. Mice received VCN-01 (3×10^9 vp in 20 µL vehicle, single intratumoral injection at day 1), alone or combined with one cycle of topotecan (0.6 mg/kg, intraperitoneal -i.p.-, daily at days 1-5), […] (40 mg/kg, i.p, one single dose at day 1), or hydroxyurea (200 mg/kg, i.p., daily at days 1-5). A group of mice received one intratumoral injection of the vehicle of VCN-01 (20 mM pH 8.0 tris buffer, 25 mM NaCl and 2.5% glycerol). Mice were sacrificed at 5 and 15 days after VCN-01 inoculation, the tumors were dissected and tumor homogenates were prepared by adding 10 μL of water per mg of tissue and homogenizing with a Bullet Blender turbine Storm 24 (Quasar instruments, Colorado Springs, CO, USA). In tumor homogenates, genome copies of VCN-01 were quantified. […]

[8] = system: s.c. retinoblastomas (Y79 and RBT-7); test: VCN-01 genomes in s.c. xenografts (Y79 and RBT-7); assay type: in vivo, mouse
Description: To quantify genome copies of VCN-01 in cell cultures or mouse tissues, total DNA was extracted and real time quantitative polymerase chain reactions (RT-qPCR) was performed as described (Cascallo et al., “Systemic toxicity-efficacy profile of ICOVIR-5, a potent and selective oncolytic adenovirus based on the pRB pathway,” Mol Ther 2007; 15(9):1607-15).
Intratumoral infection of VCN-01. S.c. tumors were established in athymic nude mice. Upon xenograft engraftment, mice received one intratumoral injection of VCN-01, alone or combined with one cycle of topotecan, […], or hydroxyurea. At 5 and 15 days after VCN-01 inoculation, genome copies of VCN-01 were quantified in the tumors and immunostained for E1A and E2F-1.
To establish s.c. tumors, 10^6 retinoblastoma cells suspended in 25 µL matrigel (Corning, Glendale, AZ, USA) were injected in athymic nude mice. Upon xenograft engraftment (tumor volumes ranging 100-200 mm^3), treatments were started. Mice received VCN-01 (3×10^9 vp in 20 µL vehicle, single intratumoral injection at day 1), alone or combined with one cycle of topotecan (0.6 mg/kg, intraperitoneal -i.p.-, daily at days 1-5), […] (40 mg/kg, i.p, one single dose at day 1), or hydroxyurea (200 mg/kg, i.p., daily at days 1-5). […] In tumor homogenates, genome copies of VCN-01 were quantified. […]

[9] = cited from earlier work
[10] = read-out: IC50, Topotecan single agent
[11] = read-out: IC50, Topotecan with VCN-01 (10 MOI)

`CC[C@@]1(O)C(=O)OCc2c1cc1n(c2=O)Cc2cc3c(CN(C)C)c(O)ccc3nc2-1` [Topotecan, topotecan] gave an IC50 [1, 10] of 15.1 nM, an IC50 [1, 11] of 118 nM and an IC50 [2, 10] of 30.3 nM. For the same compound, the IC50 [2, 11] was 893 nM, the “antiproliferative activity, topotecan first” value ([3]; cells pre-exposed to topotecan before VCN-01 infection (FIG. 13D)) was “sensitive to the antiproliferative activity of the drug” and the “antiproliferative activity, VCN-01 first” value ([3]; previous VCN-01 infection (FIG. 13D)) was “partially abolished the activity of the drug”. For the same compound, the “expression of VCN-01 proteins (E1a)” value ([4]; 4 retinoblastoma models, VCN-01 50 MOI, drug added at 24 h, lysis at 48 h (FIG. 1)) was “enhanced expression of VCN-01 proteins”, the “E1A expression in infected cells” value ([4]; VCN-01 infected cells treated with drug (FIG. 13B, FIG. 15A)) was “highly overexpressed” and the “response of xenograft to single treatment” value [5] was “highly resistant”. The “E2F-1 expression in cancer cells” value [6] was “higher in the animals treated with topotecan”, the “expression of recombinant hyaluronidase” value [7] was “higher expression of recombinant hyaluronidase” and the “counts of viral genomes, 5 days” value ([8]; 5 days after intratumoral VCN-01 (FIG. 18G)) was “higher counts of viral genomes”. The “counts of viral genomes, 15 days” value ([8]; 15 days after intratumoral VCN-01 (FIG. 19B)) was “Different counts of viral genomes were not observed”, the ocular toxicity ([9]; all routes of administration) was “minimal” and the “passage to the vitreous” value ([9]; given intravenously and intraarterially) was “favorable passage to the vitreous”.
